Source: patent publication US8853424B2 (Japan Science and Technology Agency, priority 2008, dated 2014)

Legend:
[1] = tested on: Truncated N-terminal huntington 150 Q-EGFP-Neuron 2a cells; experiment: Measurement of x-Fold (polyglutamine aggregation inhibitory activity); type: cell-based
Procedure: In the present invention, the polyglutamine aggregation inhibitory activity (x-Fold) can be measured, for example, by the method described in the Example.
The number of the aggregated cells, and the total number of cells were counted by Array Scan V T1 (manufactured by Cellomics, Pittuburg, USA), and the ratio of the aggregated cells to the total number of cells was determined (x-Fold). […]

[2] = tested on: transglutaminase (TGase); experiment: Measurement of TG (TGase inhibitory activity, monodansyl cadaverine / N,N-dimethylcasein fluorescence, FDSS 3000); type: biochemical
Outline: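 Compound (1 μL of 10 mM stock) added to 0.1 mL reaction: 100 mM HEPES-NaOH pH 7.5, 1 mM CaCl2, 20 μM monodansyl cadaverine, 0.05 mg/mL N,N-dimethylcasein, 5 μg/mL TGase. Rate of fluorescence change at 340 nm measured; DMSO control set to 100; TG50 is the concentration halving activity.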

[3] = ratio of aggregated cells to total number of cells, compound 20 μM, 20 hr, almost 1 without compound, smaller = stronger inhibition
[4] = TGase activity with compound (10 mM, 1 μL in 0.1 ml enzyme reaction solution), DMSO control taken as 100
[5] = polyglutamine aggregation inhibitory activity, Table 1
[6] = TGase inhibitory activity value, Table 1
[7] = polyglutamine aggregation, Truncated N-terminal huntington 150 Q-EGFP-Neuron 2a cells
[8] = TGase inhibitory activity measurement, unit not given

OB(c1ccc(Cl)cc1)c1ccc(Cl)cc1 [Example 115, bis(4-chlorophenyl)borinic acid]
x-Fold [1, 3]: 1.07
TGase activity remaining (% of DMSO control = 100) [2, 4]: 101

NCCOB(c1ccc(COCc2cccc(B(OCCN)c3cc(F)c(F)c(F)c3)c2)cc1)c1cc(F)c(F)c(F)c1 [Example 354, (3-(3′,4′,5′-trifluorophenylaminoethoxyboryl)benzyl)(4-(3′,4′,5′-trifluorophenylaminoethoxyboryl)benzyl)ether]
x-Fold [1, 5]: 1.09
x-Fold [1, 3]: 1.09
TGase activity remaining (% of DMSO control = 100) [2, 4]: 113
TGase activity remaining (% of DMSO control = 100) [2, 6]: 113

Nc1ccccc1C(=O)OB(c1ccccc1)c1ccccc1 [Example 219, diphenyl(2-aminophenyl carboxylate-O,N)borane]
x-Fold [1, 5]: 0.88
x-Fold [1, 3]: 0.88
TGase activity remaining (% of DMSO control = 100) [2, 4]: 91
TGase activity remaining (% of DMSO control = 100) [2, 6]: 91

Cc1ccc(B(OCCN2CCN(CCOB(c3ccc(C)c(Cl)c3)c3ccc(C)c(Cl)c3)CC2)c2ccc(C)c(Cl)c2)cc1Cl [Example 116, bis(di(3-chloro-4-methylphenyl)boryloxyethyl)piperazine]
x-Fold [1, 3]: 1.02
TGase activity remaining (% of DMSO control = 100) [2, 4]: 108

NCCNCCOB(c1ccc(COCc2ccc(B(OCCNCCN)c3ccc(F)c(F)c3)cc2)cc1)c1ccc(F)c(F)c1 [Example 419, bis(4,4′-(3,4-difluorophenyl-N-aminoethylaminoethoxyboryl)benzyl)ether]
x-Fold [1, 5]: 1.02
x-Fold [1, 7]: 0.90
x-Fold [1, 3]: 0.90
TGase activity remaining (% of DMSO control = 100) [2, 4]: 140
TGase activity remaining (% of DMSO control = 100) [2, 8]: 140
TGase activity remaining (% of DMSO control = 100) [2, 6]: 108

NCCOB(c1ccccc1)c1ccc(COCc2ccccc2B(OCCN)c2ccccc2)cc1 [Example 335, (2-(phenylaminoethoxyboryl)benzyl) (4-(phenylaminoethoxyboryl)benzyl)ether]
x-Fold [1, 5]: 1.02
x-Fold [1, 3]: 1.02
TGase activity remaining (% of DMSO control = 100) [2, 4]: 91
TGase activity remaining (% of DMSO control = 100) [2, 6]: 91

OB(c1ccc(COCc2ccc(B(O)c3ccc(C(F)(F)F)cc3)cc2)cc1)c1ccc(C(F)(F)F)cc1 [Example 407, bis(4,4′-(p-trifluoromethylphenyl-hydroxyboryl)benzyl)ether]
x-Fold [1, 3]: 1.02
TGase activity remaining (% of DMSO control = 100) [2, 4]: 77

OB(c1ccc(F)cc1)c1cccc(COCc2cccc(B(O)c3ccc(F)cc3)c2)c1 [Example 336, bis(3-(4-fluorophenylhydroxyboryl)benzyl)ether]
x-Fold [1, 5]: 1.02
x-Fold [1, 3]: 1.02
TGase activity remaining (% of DMSO control = 100) [2, 4]: 101
TGase activity remaining (% of DMSO control = 100) [2, 6]: 101

bis((4,4′-phenyl methylaminoethoxyboryl)benzyloxybenzyl)methylaminoethoxyborane [Example 190]
x-Fold [1, 5]: 1.05
x-Fold [1, 3]: 1.05
TGase activity remaining (% of DMSO control = 100) [2, 4]: 99
TGase activity remaining (% of DMSO control = 100) [2, 6]: 99

Cc1ccc2cccc(OB(c3ccccc3)c3ccc(Oc4ccc(B(Oc5cccc6ccc(C)nc56)c5ccccc5)cc4)cc3)c2n1 [Example 477, bis(4,4′-(phenyl-2-methyl-8-quinolinooxyboryl)phenyl)ether]
x-Fold [1, 7]: 1.02
x-Fold [1, 3]: 1.02
TGase activity remaining (% of DMSO control = 100) [2, 4]: 97
TGase activity remaining (% of DMSO control = 100) [2, 8]: 97

OB(c1ccc(F)c(Cl)c1)c1ccc(F)c(Cl)c1 [Example 76, bis(3-chloro-4-fluorophenyl)borinic acid]
x-Fold [1, 5]: 0.78
x-Fold [1, 3]: 0.78
TGase activity remaining (% of DMSO control = 100) [2, 4]: 117
TGase activity remaining (% of DMSO control = 100) [2, 6]: 117

Cc1cc(B(OCCN)c2ccccc2)ccc1B(OCCN)c1ccccc1 [Example 146, 1,4-bis(phenyl-2-aminoethoxyboryl) 2-methylbenzene]
x-Fold [1, 5]: 1.02
x-Fold [1, 3]: 1.02
TGase activity remaining (% of DMSO control = 100) [2, 4]: 91
TGase activity remaining (% of DMSO control = 100) [2, 6]: 91
